According to DBAASP:
≈ marks a conversion by molar mass, not a printed value.

Assays:
Experiment in all cases: ≥ marks a high value that may be exact or a test limit, other limits are often not marked, values filed in µg/mL are converted to µM
Acinetobacter baumannii = system: Acinetobacter baumannii
[1] = system: Escherichia coli ATCC 25922
[2] = system: Pseudomonas aeruginosa ATCC 10662
[3] = system: Staphylococcus aureus ATCC 25923
Staphylococcus aureus = system: Staphylococcus aureus
[4] = system: Staphylococcus epidermidis ATCC 1435
[5] = system: Aeromonas salmonicida MT004
[6] = system: Aeromonas salmonicida MT423
[7] = system: Escherichia coli NCIMB 12260
[8] = system: Lactococcus garvieae MT2055
[9] = system: Lactococcus garvieae MT2291
[10] = system: Vibrio anguillarum MT1741
[11] = system: Vibrio anguillarum MT1742
Yersinia ruckeri MT252 = system: Yersinia ruckeri MT252
Bacillus subtilis 168 = system: Bacillus subtilis 168
[12] = system: Candida albicans ATCC 10231
[13] = system: Candida glabrata ATCC 2001
[14] = system: Candida tropicalis ATCC 13803
[15] = system: Klebsiella pneumoniae ATCC 13883
[16] = system: Pseudomonas aeruginosa PAO1
[17] = system: Staphylococcus aureus MU50
[18] = system: Staphylococcus aureus Newman
[19] = system: Staphylococcus aureus UAMS-1
[20] = system: Staphylococcus aureus USA 200
[21] = system: Staphylococcus aureus USA 300
[22] = system: Staphylococcus aureus USA 400
[23] = system: Staphylococcus epidermidis 1457
Bacillus subtilis 168 HT = system: Bacillus subtilis 168 HT
Escherichia coli MG1655 = system: Escherichia coli MG1655
[24] = system: Cryptococcus neoformans ATCC 32045
[25] = system: Escherichia coli ATCC 2592
[26] = system: Pseudomonas aeruginosa ATCC 10145
[27] = system: Staphylococcus aureus ATCC 33591
[28] = system: Listeria monocytogenes KCTC 19111
[29] = system: Pseudomonas aeruginosa ATCC 15692
[30] = system: Salmonella typhimurium KCTC 1926
[31] = system: Staphylococcus epidermidis KCTC 1917
[32] = system: Bacillus subtilis ATCC 6633
[33] = system: Salmonella enterica subsp. enterica serovar Enteritidis BNCC 103134

## CC[C@H](C)[C@H](NC(=O)[C@H](Cc1cnc[nH]1)NC(=O)[C@H](Cc1cnc[nH]1)NC(=O)[C@H](Cc1ccccc1)NC(=O)[C@@H](N)Cc1ccccc1)C(=O)N[C@@H](Cc1ccccc1)C(=O)N[C@@H](CCCN=C(N)N)C(=O)NCC(=O)N[C@@H](CCCCN)C(=O)N[C@H](C(=O)N[C@@H](Cc1cnc[nH]1)C(=O)N[C@H](C(=O)NCC(=O)N[C@@H](CCCCN)C(=O)N[C@H](C(=O)N[C@H](C(=O)N[C@@H](Cc1cnc[nH]1)C(=O)N[C@@H](CCCN=C(N)N)C(=O)N[C@@H](CC(C)C)C(=O)N[C@H](C(=O)N[C@H](C(=O)NCC(N)=O)[C@@H](C)O)C(C)C)[C@@H](C)CC)[C@@H](C)O)C(C)C)C(C)C [FFHHIFRGKVHVGKTIHRLVTG]
Acinetobacter baumannii
  MIC: 1.2 µM (≈ 3.1 µg/mL)
[1]
  MIC: 1.2 µM (≈ 3.1 µg/mL)
[2]
  MIC: 9.66 µM (≈ 25 µg/mL)
[3]
  MIC: 1.2 µM (≈ 3.1 µg/mL)
Staphylococcus aureus
  MIC: 2.4 µM (≈ 6.2 µg/mL)
[4]
  MIC: 1.2 µM (≈ 3.1 µg/mL)

## CC[C@H](C)[C@H](NC(=O)CNC(=O)[C@H](CCCCN)NC(=O)[C@@H](NC(=O)[C@@H](NC(=O)[C@H](Cc1cnc[nH]1)NC(=O)[C@H](Cc1cnc[nH]1)NC(=O)[C@@H](NC(=O)[C@@H](N)Cc1ccccc1)[C@@H](C)CC)[C@@H](C)CC)[C@@H](C)CC)C(=O)N[C@@H](Cc1ccccc1)C(=O)N[C@@H](Cc1cnc[nH]1)C(=O)N[C@H](C(=O)NCC(=O)N[C@@H](CCCCN)C(=O)N[C@@H](CCSC)C(=O)N[C@H](C(=O)N[C@@H](Cc1cnc[nH]1)C(=O)N[C@@H](CO)C(=O)N[C@@H](C)C(=O)N[C@H](C(=O)N[C@@H](CC(N)=O)C(=O)N[C@@H](CCCN=C(N)N)C(=O)N[C@@H](CCCN=C(N)N)C(=O)N[C@@H](CCCN=C(N)N)C(=O)N[C@@H](Cc1cnc[nH]1)C(=O)O)[C@@H](C)CC)[C@@H](C)CC)[C@@H](C)CC [FIHHIIKGIFHIGKMIHSAINRRRH]
[5]
  MIC: 0.528 µM (≈ 1.6 µg/mL)
[6]
  MIC: 0.528 µM (≈ 1.6 µg/mL)
[7]
  MIC: 0.528 µM (≈ 1.6 µg/mL)
[8]
  MIC: 0.528 µM (≈ 1.6 µg/mL)
[9]
  MIC: 0.528 µM (≈ 1.6 µg/mL)
[10]
  MIC: 0.528 µM (≈ 1.6 µg/mL)
[11]
  MIC: 0.528 µM (≈ 1.6 µg/mL)
Yersinia ruckeri MT252
  MIC: 0.528 µM (≈ 1.6 µg/mL)

## CC[C@H](C)[C@H](NC(=O)[C@H](C)NC(=O)[C@H](CO)NC(=O)[C@H](CC(C)C)NC(=O)[C@@H](N)Cc1ccccc1)C(=O)N[C@H](C(=O)N[C@@H](CO)C(=O)N[C@H](C(=O)N[C@@H](CC(C)C)C(=O)NCC(=O)N[C@@H](CCCCN)C(=O)N[C@@H](Cc1ccccc1)C(=O)N[C@@H](Cc1ccccc1)C(N)=O)[C@@H](C)CC)[C@@H](C)O [FLSAITSILGKFF]
Bacillus subtilis 168
  MIC: 12.5 µM (≈ 18 µg/mL)
[12]
  MIC: 25 µM (≈ 36.1 µg/mL)
[13]
  MIC: 25 µM (≈ 36.1 µg/mL)
[14]
  MIC: 6.2 µM (≈ 8.95 µg/mL)
[1]
  MIC: > 50 µM
[15]
  MIC: ≥ 50 µM
[16]
  MIC: > 50 µM
[17]
  MIC: 12.5 µM (≈ 18 µg/mL)
[18]
  MIC: 12.5 µM (≈ 18 µg/mL)
[19]
  MIC: 25 µM (≈ 36.1 µg/mL)
[20]
  MIC: 6.25 µM (≈ 9.02 µg/mL)
[21]
  MIC: 6.3 µM (≈ 9.09 µg/mL)
[22]
  MIC: 6.25 µM (≈ 9.02 µg/mL)
[23]
  MIC: 6.3 µM (≈ 9.09 µg/mL)

## CC[C@H](C)[C@H](N)C(=O)N[C@@H](CCCCN)C(=O)N[C@H](C(=O)N[C@H](C(=O)N[C@@H](C)C(=O)N1CCC[C@H]1C(=O)N[C@@H](CCCCN)C(=O)N[C@@H](CCCCN)C(=O)N[C@H](C(=O)N[C@@H](CCCCN)C(=O)N[C@@H](CC(C)C)C(=O)O)[C@@H](C)CC)C(C)C)[C@@H](C)CC [IKIVAPKKIKL]
Bacillus subtilis 168 HT
  MIC: ≥ 102 µM
Escherichia coli MG1655
  MIC: ≥ 102 µM

## C[C@H](NC(=O)[C@H](Cc1ccccc1)NC(=O)[C@H](CCCCN)NC(=O)[C@H](CCCCN)NC(=O)[C@H](C)NC(=O)[C@H](Cc1ccccc1)NC(=O)[C@H](CCCCN)NC(=O)[C@H](CCCCN)NC(=O)[C@H](C)NC(=O)[C@H](Cc1ccccc1)NC(=O)[C@H](CCCCN)NC(=O)[C@H](CCCCN)NC(=O)[C@H](C)NC(=O)[C@H](Cc1ccccc1)NC(=O)[C@H](CCCCN)NC(=O)[C@H](CCCCN)NC(=O)[C@H](C)NC(=O)[C@H](Cc1ccccc1)NC(=O)[C@H](CCCCN)NC(=O)[C@H](CCCCN)NC(=O)[C@H](C)NC(=O)[C@H](Cc1ccccc1)NC(=O)[C@H](CCCCN)NC(=O)[C@H](CCCCN)NC(=O)[C@H](C)NC(=O)[C@H](Cc1ccccc1)NC(=O)[C@@H](N)CCCCN)C(=O)N[C@@H](CCCCN)C(=O)O [KFAKKFAKKFAKKFAKKFAKKFAKKFAK]
[12]
  MIC: 33.5 µM (≈ 112 µg/mL)
[24]
  MIC: 13.3 µM (≈ 44.5 µg/mL)
[25]
  MIC: 13.3 µM (≈ 44.5 µg/mL)
[26]
  MIC: 4.79 µM (≈ 16 µg/mL)
[27]
  MIC: ≥ 74.8 µM

## NCCCC[C@H](NC(=O)[C@H](Cc1ccc(O)cc1)NC(=O)[C@H](Cc1c[nH]c2ccccc12)NC(=O)[C@H](CCCCN)NC(=O)[C@H](CCCCN)NC(=O)[C@H](Cc1ccc(O)cc1)NC(=O)[C@H](Cc1c[nH]c2ccccc12)NC(=O)[C@H](CCCCN)NC(=O)[C@H](CCCCN)NC(=O)[C@H](Cc1ccc(O)cc1)NC(=O)[C@H](Cc1c[nH]c2ccccc12)NC(=O)[C@H](CCCCN)NC(=O)[C@H](CCCCN)NC(=O)[C@H](Cc1ccc(O)cc1)NC(=O)[C@H](Cc1c[nH]c2ccccc12)NC(=O)[C@@H](N)CCCCN)C(N)=O [KWYKKWYKKWYKKWYK]
[1]
  MIC: 1 µM (≈ 2.44 µg/mL)
[28]
  MIC: 1 µM (≈ 2.44 µg/mL)
[29]
  MIC: 2 µM (≈ 4.88 µg/mL)
[30]
  MIC: 2 µM (≈ 4.88 µg/mL)
[3]
  MIC: 2 µM (≈ 4.88 µg/mL)
[31]
  MIC: 1 µM (≈ 2.44 µg/mL)

## C[C@@H](O)[C@H](NC(=O)[C@H](Cc1ccccc1)NC(=O)[C@H](CO)NC(=O)[C@@H](NC(=O)[C@@H]1CCCN1C(=O)[C@@H](N)Cc1c[nH]c2ccccc12)[C@@H](C)O)C(=O)O [WPTSFT]
[32]
  MIC: ≥ 300 µM
[1]
  MIC: 200 µM (≈ 148 µg/mL)
[33]
  MIC: ≥ 350 µM
[3]
  MIC: 300 µM (≈ 221 µg/mL)
